Test results published in PMC7113773 (Antiviral Research, 2014).
Counter-ions that a name gives are not always drawn. Like-named read-outs stand apart in the source and are kept apart here.

What was measured:
[1] = tested on: A/Puerto Rico/8/34 (H1N1; PR8); assay: organism not typed; format: cell-based, influenza A virus; details: for EC50: read-out: EC50 for influenza virus A/Puerto Rico/8/34
A/Hong Kong/8/68 (H3N2) = assay: organism not typed; format: cell-based, influenza A virus; details: for EC50: read-out: EC50 for influenza virus A/Hong Kong/8/68
in vitro = details: dog
[2] = tested on: pore-forming glycoprotein perforin; details: previous study, ref Lena et al., 2008; cited from earlier work
B/Lee/40 = format: cell-based, influenza B virus; details: for EC50: read-out: EC50 for influenza virus B/Lee/40
MDCK cells = details: for CC50: read-out: CC50 for MDCK cells, mock-infected MDCK cells, day 3, MTT
[3] = tested on: PR8 virus NP and HA protein; format: cell-based, influenza A virus; details: 11, 33 and 100 μM, 24 h at 35 °C

SMILES	EC50 ([1]; MDCK, 72 h) [µM]	EC50 (A/Hong Kong/8/68 (H3N2); MDCK, 72 h) [µM]	CC50 (in vitro) [µM]	also measured
NC12CC3CC(CC(C3)C1)C2 [Amantadine hydrochloride, reference compound]	> 100	2.8 ± 1.7	> 100	
Cc1cc2c(c(=O)[nH]1)C(=O)O/C2=C\c1c[nH]c2ccc(F)cc12 [Compound 15b, (Z)-1-((5-Fluoro-1H-indol-3-yl)methylene)-6-methylfuro[3,4-c]pyridine-3,4(1H,5 H)-dione]	22.5 ± 10.8	26.8 ± 16.2	> 900	
Cc1cc2c(c(=S)n1C)C(=O)O/C2=C\c1cc2cc(F)ccc2[nH]1 [Compound 15c, (Z)-1-((5-Fluoro-1H-indol-2-yl)methylene)-5,6-dimethyl-4-thioxo-4,5-dihydrofuro[3,4-c]pyridin-3(1H)-one]	> 100	> 100	> 900	
O=C1O/C(=C\c2c[nH]c3ccc(F)cc23)c2cc(-c3ccccc3)[nH]c(=S)c21 [Compound 15d, (Z)-1-((5-Fluoro-1H-indol-3-yl)methylene)-6-phenyl-4-thioxo-4,5-dihydrofuro[3,4-c]pyridin-3(1H)-one]	63.8 ± 25.2	32.5 ± 13.3	> 900	
Cc1cc2c(c(=S)[nH]1)C(=O)O/C2=C\c1c[nH]c2ccccc12 [Compound 15e, (Z)-1-((1H-Indol-3-yl)methylene)-6-methyl-4-thioxo-4,5-dihydrofuro[3,4-c]pyridi n-3(1H)-one]	> 100	> 100	> 900	inhibitory effect on cell lysis induced by perforin [2]: inactive
Cc1cc2c(c(=S)[nH]1)C(=O)O/C2=C\c1csc2ccccc12 [Compound 15f, (Z)-1-(Benzo[b]thiophen-3-ylmethylene)-6-methyl-4-thioxo-4,5-dihydrofuro[3,4-c]pyridin-3(1H)-one]	26.1 ± 6	28.8 ± 6.2	> 900	inhibitory effect on cell lysis induced by perforin [2]: active
Cc1cc2c(c(=S)[nH]1)C(=O)O/C2=C\c1sc2ccccc2c1C [Compound 15h, (Z)-6-Methyl-1-((3-methylbenzo[b]thiophen-2-yl)methylene)-4-thioxo-4,5-dihydrofuro[3,4-c]pyridin-3(1H)-one]	> 100	> 100	> 900	
Cc1c(/C=C2\OC(=O)c3c2cc(C)n(C)c3=S)sc2ccccc12 [Compound 15i, (Z)-5,6-Dimethyl-1-((3-methylbenzo[b]thiophen-2-yl)methylene)-4-thioxo-4,5-dihydrofuro[3,4-c]pyridin-3(1H)-one]	> 100	> 100	> 900	
Cc1cc2c(c(=S)[nH]1)C(=O)O/C2=C\c1ccsc1 [Compound 15j, (Z)-6-Methyl-1-(thiophen-3-ylmethylene)-4-thioxo-4,5-dihydrofuro[3,4-c]pyridi n-3(1H)-one]	5	6.2	> 900	S.I. (selectivity index, CC50/EC50), B/Lee/40 (B/Lee/40): 5.9 ± 2.0 (>152.5); toxicity to MDCK cells (MDCK cells; at 900 μM, uninfected MDCK cells): no toxicity; S.I. (selectivity index, CC50/EC50), A/Puerto Rico/8/34 [1]: 5.0 ± 1.0 (>180.0); viral protein level (NP, HA) in cells [3]: Reduction of the influenza viral protein level; S.I. (selectivity index, CC50/EC50), A/Hong Kong/8/68 (A/Hong Kong/8/68 (H3N2)): 6.2 ± 3.1 (>145.2); inhibitory effect on cell lysis induced by perforin [2]: none
Cc1cc2c(c(=O)[nH]1)C(=O)O/C2=C\c1ccsc1 [Compound 15k, (Z)-6-Methyl-1-(thiophen-3-ylmethylene)furo[3,4-c]pyridine-3,4(1H,5H)-dione]	> 19.8	> 19.8	19.8 ± 8.2	
O=C1O/C(=C\c2ccsc2)c2cc(-c3ccccc3)[nH]c(=S)c21 [Compound 15l, (Z)-6-Penyl-1-(thiophen-3-ylmethylene)-4-thioxo-4,5-dihydrofuro[3,4-c]pyridin-3(1H)-one]				EC50 (B/Lee/40): > 100 µM; CC50 (MDCK cells): > 900 µM; EC50 [1]: > 100 µM; EC50 (A/Hong Kong/8/68 (H3N2)): 27.1 ± 5.8 µM
Cc1cc2c(c(=S)[nH]1)C(=O)O/C2=C\c1ccoc1 [Compound 15m, (Z)-1-(Fran-3-ylmethylene)-6-methyl-4-thioxo-4,5-dihydrofuro[3,4-c]pyridin-3(1H)-one]				EC50 (B/Lee/40): 16.3 ± 8.5 µM; CC50 (MDCK cells): > 900 µM; EC50 [1]: 21.4 ± 12.6 µM; EC50 (A/Hong Kong/8/68 (H3N2)): 34.1 ± 10 µM; inhibitory effect on cell lysis induced by perforin [2]: none
Cc1cc2c(c(=O)[nH]1)C(=O)O/C2=C\c1ccoc1 [Compound 15n, (Z)-1-(Furan-3-ylmethylene)-6-methylfuro[3,4-c]pyridine-3,4(1H,5H)-dione]	> 61.9	> 61.9	61.9 ± 10.7	
O=C1O/C(=C\c2cccs2)c2cc(-c3ccccc3)[nH]c(=S)c21 [Compound 15r, (Z)-6-Phenyl-1-(thiophen-2-ylmethylene)-4-thioxo-4,5-dihydrofuro[3,4-c]pyridin-3(1H)-one]	28.9 ± 12.6	15.1 ± 3.8	> 900	
Cc1cc2c(c(=S)[nH]1)C(=O)O/C2=C\c1sccc1C [Compound 15s, (Z)-6-Methyl-1-((3-methylthiophen-2-yl)methylene)-4-thioxo-4,5-dihydrofuro[3,4-c]pyridin-3(1H)-one]	17.6	12.7	> 900	S.I. (selectivity index, CC50/EC50), B/Lee/40 (B/Lee/40): 14.0 ± 7.4 (>64.3); S.I. (selectivity index, CC50/EC50), A/Puerto Rico/8/34 [1]: 17.6 ± 11.0 (>51.1); S.I. (selectivity index, CC50/EC50), A/Hong Kong/8/68 (A/Hong Kong/8/68 (H3N2)): 12.7 ± 8.2 (>70.9)
Cc1cc2c(c(=S)[nH]1)C(=O)O/C2=C\c1ccc(C)s1 [Compound 15t, (Z)-6-Methyl-1-((5-methylthiophen-2-yl)methylene)-4-thioxo-4,5-dihydrofuro[3,4-c]pyridin-3(1H)-one]	8	12.2	> 900	S.I. (selectivity index, CC50/EC50), B/Lee/40 (B/Lee/40): 9.6 ± 3.5 (>93.8); S.I. (selectivity index, CC50/EC50), A/Puerto Rico/8/34 [1]: 8.0 ± 3.6 (>112.5); S.I. (selectivity index, CC50/EC50), A/Hong Kong/8/68 (A/Hong Kong/8/68 (H3N2)): 12.2 ± 2.9 (>73.8); inhibitory effect on cell lysis induced by perforin [2]: active
CCc1ccc(/C=C2\OC(=O)c3c2cc(C)[nH]c3=S)s1 [Compound 15u, (Z)-1-((5-Ethylthiophen-2-yl)methylene)-6-methyl-4-thioxo-4,5-dihydrofuro[3,4-c]pyridin-3(1H)-one]	31.7 ± 21.7	32.6 ± 10.2	> 900	
Cc1cc2c(c(=S)[nH]1)C(=O)O/C2=C\c1cc(Br)cs1 [Compound 15v, (Z)-1-((4-Bromothiophen-2-yl)methylene)-6-methyl-4-thioxo-4,5-dihydrofuro[3,4-c]pyridin-3(1H)-one]	63.7 ± 36	47.1 ± 18.7	> 900	
Cc1cc2c(c(=S)[nH]1)C(=O)O/C2=C\c1ccc(Br)s1 [Compound 15w, (Z)-1-((5-Bromothiophen-2-yl)methylene)-6-methyl-4-thioxo-4,5-dihydrofuro[3,4-c]pyridin-3(1H)-one]	> 100	> 100	> 900	
Cc1ccsc1/C=C1\OC(=O)c2c1cc(C)n(C)c2=S [Compound 15x, (Z)-5,6-Dimethyl-1-((3-methylthiophen-2-yl)methylene)-4-thioxo-4,5-dihydrofuro[3,4-c]pyridin-3(1H)-one]	12.1	11.7	> 900	S.I. (selectivity index, CC50/EC50), B/Lee/40 (B/Lee/40): 8.0 ± 3.6 (>112.5); S.I. (selectivity index, CC50/EC50), A/Puerto Rico/8/34 [1]: 12.1 ± 9.5 (>74.4); S.I. (selectivity index, CC50/EC50), A/Hong Kong/8/68 (A/Hong Kong/8/68 (H3N2)): 11.7 ± 2.7 (>76.9)
NC(=O)c1ncn([C@@H]2O[C@H](CO)[C@@H](O)[C@H]2O)n1 [Ribavirin, ribavirin, reference compound]	18.8 ± 4.3	20.2 ± 2.4		
